{"source": "paper PMC5486975", "about": "(European journal of medicinal chemistry, 2017)", "key": {"[1]": {"test_system": "LNCaP human androgen-sensitive prostate cancer cell line", "assay": "WST-1 cell proliferation assay, LNCaP", "assay_type": "cell-based"}, "[2]": {"test_system": "DU145 human androgen-insensitive prostate cancer cell line", "assay": "WST-1 cell proliferation assay, DU145", "assay_type": "cell-based"}, "[3]": {"test_system": "PWR-1E non-neoplastic human prostate epithelial cells", "assay": "WST-1 cell proliferation assay, PWR-1E", "assay_type": "cell-based"}, "[4]": {"test_system": "PC-3 human androgen-insensitive prostate cancer cell line", "assay": "WST-1 cell proliferation assay, PC-3", "assay_type": "cell-based"}, "[5]": {"test_system": "PC-3 cells", "conditions": "cited from earlier work"}, "[6]": {"conditions": "fold potency relative to curcumin"}}, "data": [{"smiles": "COc1cc(/C=C/C(=O)CC(=O)/C=C/c2ccc(O)c(OC)c2)ccc1O", "note": "[Curcumin]", "values": [{"measurement": "IC50", "setting": "[1]; Homo sapiens, LNCaP, 72 h, read-out: IC50 (μM) LNCaP", "value": "13.6 ± 2.69", "unit": "µM"}, {"measurement": "IC50(curcumin)/IC50(trienone) LNCaP", "setting": "[1]; [6]", "value": 1}, {"measurement": "IC50", "setting": "[2]; Homo sapiens, DU-145, 72 h, read-out: IC50 (μM) DU145", "value": "26.2 ± 0.65", "unit": "µM"}, {"measurement": "IC50(curcumin)/IC50(trienone) DU145", "setting": "[2]; [6]", "value": 1}, {"measurement": "IC50", "setting": "[3]; Homo sapiens, PWR-1E, 72 h, read-out: IC50 (μM) PWR-1E", "value": "8.14 to 9.54", "unit": "µM"}, {"measurement": "IC50(curcumin)/IC50(trienone) PWR-1E", "setting": "[3]; [6]", "value": 1}, {"measurement": "IC50", "setting": "[4]; Homo sapiens, 72 h, read-out: IC50 (μM) PC-3", "value": "25.4 ± 2.15", "unit": "µM"}, {"measurement": "IC50(curcumin)/IC50(trienone) PC-3", "setting": "[4]; [6]", "value": 1}, {"measurement": "effect on PC-3 cell cycle progression", "setting": "[5]", "value": "arresting the G1/S phase"}]}]}
